From ChEMBL document CHEMBL1201862, “PubChem BioAssay data set” (2004)
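Each compound was tested at five concentrations against cells in 96-well plates for 48 hours. GI50 marks 50% less growth.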 Activity calls are given as the source filed them. No stated cut-off is given here; in the data, active = GI50 up to about 1.1 µM and inactive = higher.

Key:
Test in all cases: DTP human tumour cell line panel, 48 h
UO-31 = system: UO-31
T47D = system: T47D
MDA-MB-435 = system: MDA-MB-435
SF-268 = system: SF-268
SK-OV-3 = system: SK-OV-3
SNB-75 = system: SNB-75
HOP-62 = system: HOP-62
COLO 205 = system: COLO 205
UACC-62 = system: UACC-62
KM12 = system: KM12
SN12C = system: SN12C
HCT-116 = system: HCT-116
UACC-257 = system: UACC-257
NCI-H226 = system: NCI-H226
HL-60 = system: HL-60
DU-145 = system: DU-145
SNB-19 = system: SNB-19
PC-3 = system: PC-3
SK-MEL-28 = system: SK-MEL-28
LOX IMVI = system: LOX IMVI

Compound | GI50 (UO-31) | GI50 (T47D) | GI50 (MDA-MB-435) | GI50 (SF-268) | GI50 (SK-OV-3) | GI50 (SNB-75) | GI50 (HOP-62) | GI50 (COLO 205) | GI50 (UACC-62) | GI50 (KM12) | GI50 (SN12C) | GI50 (HCT-116) | GI50 (UACC-257) | GI50 (NCI-H226) | GI50 (HL-60) | GI50 (DU-145) | GI50 (SNB-19) | GI50 (PC-3) | GI50 (SK-MEL-28) | GI50 (LOX IMVI)
Oc1ccc(/N=N/c2ccc(Cl)cc2)cc1 | 13.7 µM (inactive) | 15 µM (inactive) | 14.9 µM (inactive) | 17.7 µM (inactive) | 21.9 µM (inactive) | 18.9 µM (inactive) | 18.4 µM (inactive) | 18.4 µM (inactive) | 11.9 µM (inactive) | 13 µM (inactive) | 17.1 µM (inactive) | 15.9 µM (inactive) | 15.8 µM (inactive) | 17.7 µM (inactive) | 4.38 µM (inactive) | 16.4 µM (inactive) | 18 µM (inactive) | 14.9 µM (inactive) | 23 µM (inactive) | 11.9 µM (inactive)
CCCN(CCCCN1C(=O)c2ccccc2C1=O)CC1COc2ccccc2O1 (stereo not drawn) | 51.9 µM (inactive) | 42.9 µM (inactive) | > 100 µM (inactive) | > 100 µM (inactive) | > 100 µM (inactive) | > 100 µM (inactive) | > 100 µM (inactive) | 50.1 µM (inactive) | > 100 µM (inactive) | > 100 µM (inactive) | > 100 µM (inactive) | 59.4 µM (inactive) | 65.9 µM (inactive) | 53 µM (inactive) | 14.1 µM (inactive) | > 100 µM (inactive) | > 100 µM (inactive) | 51.9 µM (inactive) | 88.5 µM (inactive) | > 100 µM (inactive)
COc1cc(-c2oc3c(OC)c(O)c(OC)c(O)c3c(=O)c2OC)cc(OC)c1OC | 17.3 µM (inactive) | 24.6 µM (inactive) | 35.4 µM (inactive) | 21 µM (inactive) | 40.9 µM (inactive) | 20.8 µM (inactive) | 28.8 µM (inactive) | 83.8 µM (inactive) | 24.3 µM (inactive) | > 100 µM (inactive) | > 100 µM (inactive) | 68.1 µM (inactive) | 82.4 µM (inactive) | > 100 µM (inactive) | 41 µM (inactive) | > 100 µM (inactive) | > 100 µM (inactive) | 65.8 µM (inactive) | 81.5 µM (inactive) | 35.4 µM (inactive)
CC(=O)OCC12C(OC(C)=O)C[C@@H](C)C3(CC(c4ccoc4)OC3=O)C1CCC(OC(C)=O)C21CO1 (stereo partly drawn) | > 100 µM (inactive) | > 100 µM (inactive) | > 100 µM (inactive) | > 100 µM (inactive) | > 100 µM (inactive) | > 100 µM (inactive) | > 100 µM (inactive) | > 100 µM (inactive) | > 100 µM (inactive) | > 100 µM (inactive) | > 100 µM (inactive) | > 100 µM (inactive) | > 100 µM (inactive) | > 100 µM (inactive) | > 100 µM (inactive) | > 100 µM (inactive) | > 100 µM (inactive) | > 100 µM (inactive) | > 100 µM (inactive) | > 100 µM (inactive)
N#CC(NC12CC3CC(CC(C3)C1)C2)c1ccccc1 (stereo not drawn) | > 100 µM (inactive) | > 100 µM (inactive) | > 100 µM (inactive) | > 100 µM (inactive) | > 100 µM (inactive) | > 100 µM (inactive) | > 100 µM (inactive) | > 100 µM (inactive) | > 100 µM (inactive) | > 100 µM (inactive) | > 100 µM (inactive) | > 100 µM (inactive) | > 100 µM (inactive) | > 100 µM (inactive) | > 100 µM (inactive) | > 100 µM (inactive) | > 100 µM (inactive) | > 100 µM (inactive) | > 100 µM (inactive) | > 100 µM (inactive)
C=C(Cl)C(Cl)(CBr)CCC(Cl)C(C)(C)Cl (stereo not drawn) | 2.3 µM (inactive) | 0.256 µM (active) | 2.05 µM (inactive) | 1.08 µM (active) | 25.8 µM (inactive) | 0.23 µM (active) | 1.11 µM (active) | 4.15 µM (inactive) | – | 0.375 µM (active) | 7.38 µM (inactive) | 0.638 µM (active) | 1.57 µM (inactive) | 22.2 µM (inactive) | 0.713 µM (active) | 1.35 µM (inactive) | 2.26 µM (inactive) | 1.53 µM (inactive) | 1.69 µM (inactive) | 12.9 µM (inactive)
CCCCCC/C=C\CCCCCCCCC(=O)c1cccc(OC)c1OC | > 100 µM (inactive) | 29.2 µM (inactive) | 84.7 µM (inactive) | > 100 µM (inactive) | > 100 µM (inactive) | > 100 µM (inactive) | > 100 µM (inactive) | 87.3 µM (inactive) | > 100 µM (inactive) | 84.7 µM (inactive) | > 100 µM (inactive) | 41.7 µM (inactive) | 34.4 µM (inactive) | > 100 µM (inactive) | 14.8 µM (inactive) | > 100 µM (inactive) | > 100 µM (inactive) | 71 µM (inactive) | > 100 µM (inactive) | 16.8 µM (inactive)
CC(=O)OCC(OC(C)=O)C(OC(C)=O)C(OC(C)=O)C(/C=N\Nc1nc2ccccc2c(=O)[nH]1)=N/Nc1nc2ccccc2c(=O)[nH]1 (stereo not drawn) | > 100 µM (inactive) | > 100 µM (inactive) | > 100 µM (inactive) | > 100 µM (inactive) | > 100 µM (inactive) | > 100 µM (inactive) | > 100 µM (inactive) | > 100 µM (inactive) | > 100 µM (inactive) | 97.7 µM (inactive) | > 100 µM (inactive) | > 100 µM (inactive) | > 100 µM (inactive) | > 100 µM (inactive) | > 100 µM (inactive) | > 100 µM (inactive) | > 100 µM (inactive) | > 100 µM (inactive) | > 100 µM (inactive) | > 100 µM (inactive)
N=C(N)NCCCC(NC(=O)OCCCCn1ccc(N)nc1=O)C(=O)O (stereo not drawn) | > 100 µM (inactive) | > 100 µM (inactive) | > 100 µM (inactive) | > 100 µM (inactive) | > 100 µM (inactive) | > 100 µM (inactive) | > 100 µM (inactive) | > 100 µM (inactive) | > 100 µM (inactive) | > 100 µM (inactive) | > 100 µM (inactive) | > 100 µM (inactive) | > 100 µM (inactive) | 4.26 µM (inactive) | > 100 µM (inactive) | > 100 µM (inactive) | > 100 µM (inactive) | > 100 µM (inactive) | > 100 µM (inactive) | > 100 µM (inactive)
Cc1ccc(O)c(C(c2cc(C)ccc2O)c2cc([N+](=O)[O-])ccc2O)c1 | 7.74 µM (inactive) | 16.9 µM (inactive) | 15 µM (inactive) | 7.62 µM (inactive) | 17.7 µM (inactive) | 5.46 µM (inactive) | 13.4 µM (inactive) | 17.8 µM (inactive) | 15.9 µM (inactive) | 7.74 µM (inactive) | 14.7 µM (inactive) | 24.6 µM (inactive) | 16.6 µM (inactive) | 14.4 µM (inactive) | 3.42 µM (inactive) | 17.3 µM (inactive) | > 10 µM (inactive) | 9.02 µM (inactive) | 5.73 µM (inactive) | 31.7 µM (inactive)
CCOC(=O)C(CC#Cc1ccc(C#CCC(NC(C)=O)C(=O)OCC)cc1)NC(C)=O (stereo not drawn) | > 100 µM (inactive) | > 100 µM (inactive) | > 100 µM (inactive) | > 100 µM (inactive) | > 100 µM (inactive) | > 100 µM (inactive) | > 100 µM (inactive) | > 100 µM (inactive) | > 100 µM (inactive) | > 100 µM (inactive) | > 100 µM (inactive) | > 100 µM (inactive) | > 100 µM (inactive) | > 100 µM (inactive) | > 100 µM (inactive) | > 100 µM (inactive) | > 100 µM (inactive) | > 100 µM (inactive) | > 100 µM (inactive) | > 100 µM (inactive)
CN1[C@@H]2CCCC[C@H]2N(C)P1(=O)C(O)/C=C/c1ccccc1 (stereo partly drawn) | > 100 µM (inactive) | > 100 µM (inactive) | > 100 µM (inactive) | > 100 µM (inactive) | > 100 µM (inactive) | > 100 µM (inactive) | > 100 µM (inactive) | > 100 µM (inactive) | > 100 µM (inactive) | > 100 µM (inactive) | > 100 µM (inactive) | > 100 µM (inactive) | > 100 µM (inactive) | > 100 µM (inactive) | > 100 µM (inactive) | > 100 µM (inactive) | > 100 µM (inactive) | > 100 µM (inactive) | > 100 µM (inactive) | > 100 µM (inactive)
COc1ccc2[nH]c3c(C)c4ccnc(NCCCN(C)CCCN)c4c(C)c3c2c1 | 0.207 µM (active) | 0.213 µM (active) | 0.195 µM (active) | 0.138 µM (active) | 0.838 µM (active) | 0.0257 µM (active) | 0.109 µM (active) | 0.0778 µM (active) | 0.22 µM (active) | 0.258 µM (active) | 0.0274 µM (active) | 0.107 µM (active) | 0.979 µM (active) | 0.0458 µM (active) | 0.12 µM (active) | 0.196 µM (active) | 0.213 µM (active) | 0.259 µM (active) | 0.719 µM (active) | 0.198 µM (active)
N#Cc1c(-c2ccc(Cl)cc2)cc(-c2ccc(Nc3ccnc4cc(Cl)ccc34)cc2)[nH]c1=O | > 100 µM (inactive) | > 100 µM (inactive) | > 100 µM (inactive) | 26.2 µM (inactive) | 34.7 µM (inactive) | 14.6 µM (inactive) | 15.1 µM (inactive) | > 100 µM (inactive) | > 100 µM (inactive) | > 61 µM (inactive) | – | 44.2 µM (inactive) | > 100 µM (inactive) | > 100 µM (inactive) | > 100 µM (inactive) | 99.3 µM (inactive) | 27.7 µM (inactive) | > 100 µM (inactive) | > 100 µM (inactive) | 31.6 µM (inactive)
